This note sets out measurements from patent publication US20250326771A1, “PIPERAZINE DERIVATIVES USEFUL IN HIV THERAPY” (VIIV HEALTHCARE COMPANY, priority 2022, published 2025).

The target of one assay is cIAP1-BIR2 (Homo sapiens (Human), UniProt Q13490). The assay can be described thus: BIR binding assay (FRET competition), cIAP1 BIR2. The protocol: (§1) The BIR domain binding assays are FRET based competition assays that utilize His-tagged versions of each of the BIR2 and BIR3 domains from cIAP1, cIAP2, and XIAP (each domain assayed separately) each at a custom optimal concentration and a probe, 200 nM SMAC/DIABLO peptide […] labelled with AlexaFluor647 (part #crb 1110326h, Discovery Peptides). The assay is conducted in 50 mM HEPES, […], 1 mM CHAPS, 5% Glycerol, 1 mM DTT, in dI water with a final pH of 7.4 and final volume of 20 uL. Final protein domain concentrations are: 50 nM cIAP1-BIR3 (Part #APT-11-370 Reaction Biology), 100 nM XIAP-BIR3 (Part #APT-11-351 Reaction Biology), 200 nM XIAP-BIR2 (Part #APT-11-470 Reaction Biology), 325 nM cIAP2-BIR2 (Part #APT-11-489 Reaction Biology), 50 nM cIAP2-BIR3 (Part #APT-11-372 Reaction Biology), 325 nM cIAP1-BIR2 (Part #APT-11-487 Reaction Biology). Compounds were plated using a HP Tecan D300 printer in a final total volume of 202 nl and DMSO concentration normalized across the 15-point, 3-fold dilution series. Peptide and probe were prepared at 2× relative to the concentrations above in binding buffer, 10 uL added to the prepared compound plates, and incubated for 60 minutes. LANCE Eu-W1024 (part #AD0401 Perkin Elmer #, vendor) was prepared at 2× concentration in binding buffer for final concentration of 2 nM, 10 uL added to each well, and plates incubated for 30 minutes. Plates were read on an ENVISION multifunction plate reader with […] laser excitation to obtain the 615 nm/665 nm emission ratio as indicative of probe:protein proximity. Data was analyzed using GraphPad PRISM and curves fit using log(inhibitor) vs. response—Variable slope (four […] method to obtain IC50 and pIC50 values.
Sequence of cIAP1-BIR2 (Q13490 173-257): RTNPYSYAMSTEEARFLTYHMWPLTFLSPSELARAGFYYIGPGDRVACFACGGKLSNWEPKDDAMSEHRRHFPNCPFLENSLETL

Assay [1] relates to Jurkat HIV-luciferase clones. The assay can be described thus: Jurkat latency reversal assay. The format is cell-based. The following applies: Homo sapiens, 48 h; Jurkat latency reversal assay potency; read-out: Jurkat pEC50 (converted). The protocol: Jurkat HIV-luciferase clones were maintained in RPMI medium 1640 (Gibco by Life Technologies) containing 10% (vol/vol) fetal bovine serum (SAFC/Sigma-Aldrich) and 25 units/mL penicillin, 25 units/mL streptomycin (Gibco by Life Technologies), and were split 1:4 every 3 to 4 days to maintain a cell density of ˜0.3 to 1 million cells/mL. The Jurkat clones were maintained with the addition of 500 nM EFV in the medium. Three Jurkat cell clones (C16, 115, and N6), each harboring one or two integrated HIV proviruses expressing the luciferase reporter gene, were added at equal amounts for a total of 5,000 cells per well to 384-well plates containing compound titrations. Dose-response testing was performed on compounds dissolved in dimethyl sulfoxide (DMSO; Fisher Scientific, Merelbeke, Belgium) dispensed in duplicate serial 3-fold, 14-point titrations using a D300e Digital Droplet Dispenser (Hewlett-Packard) to give final assay concentrations of 10 μM to […] in 50 μL of medium at 0.5% DMSO (vol/vol) final concentration. Cells and compound were incubated at 37° C. for 48 hours, unless otherwise indicated, followed by the addition of 20 μL of Steady-Glo® Luciferase (Promega). Luminescence resulting from the induction of the virally expressed luciferase was measured using an EnVision 2102 Multilabel Plate Reader (Perkin Elmer). Dose-response relationships were analyzed with GraphPad PRISM 6 using a four-parameter logistic regression model to calculate the concentration of compound that gives half-maximal response (EC50) and the maximal percent activation compared to the vehicle control.

The next assay deals with XIAP-BIR3 (Homo sapiens (Human), UniProt P98170). In words: BIR binding assay (FRET competition), XIAP BIR3. The protocol: as §1
Sequence of XIAP-BIR3 (P98170 241-356): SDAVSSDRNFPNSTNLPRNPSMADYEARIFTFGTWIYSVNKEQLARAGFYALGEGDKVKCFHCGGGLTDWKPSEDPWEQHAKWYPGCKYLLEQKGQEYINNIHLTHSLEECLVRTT
Another assay concerns the target cIAP2-BIR3 (Homo sapiens (Human), UniProt Q13489). The assay can be described thus: BIR binding assay (FRET competition), cIAP2 BIR3. The protocol: as §1
The target of a further assay is cIAP1-BIR3 (Homo sapiens (Human), UniProt Q13490). The assay can be described thus: BIR binding assay (FRET competition), cIAP1 BIR3. The following applies: for cIAP1 BIR3 vs BIR2 separation window: fold separation (FS) for cIAP1. How it is done:
as §1

Sequence of cIAP1-BIR3 (Q13490 253-363): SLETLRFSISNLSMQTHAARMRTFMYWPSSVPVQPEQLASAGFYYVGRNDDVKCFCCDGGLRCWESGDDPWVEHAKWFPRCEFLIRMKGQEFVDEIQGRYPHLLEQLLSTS
Sequence of cIAP2-BIR3 (Q13489 238-349): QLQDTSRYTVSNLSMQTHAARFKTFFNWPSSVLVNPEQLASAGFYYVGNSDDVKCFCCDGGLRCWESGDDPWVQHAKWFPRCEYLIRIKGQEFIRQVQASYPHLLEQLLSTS

For orientation: IC50 means the concentration at which inhibition is half-maximal. A lower IC50 goes with greater potency in that assay. As for `C[C@@H]1CN(CC(=O)N2CC(C)(C)c3ncc(Cc4ccc(Cl)cc4)cc32)[C@@H](CN2CCO[C@H](COc3cccc(OC[C@@H]4CN(C[C@H]5CN[C@H](C)CN5CC(=O)N5CC(C)(C)c6ncc(Cc7ccc(Cl)cc7)cc65)CCO4)c3)C2)CN1` [Compound 147], the IC50 lay in the range of 3160 to 10000 nM on cIAP1-BIR2, 31.6 to 501 nM on XIAP-BIR3, 15.8 to 31.6 nM on cIAP2-BIR3 and 15.8 to 31.6 nM on cIAP1-BIR3. In addition, in assay [1], the EC50 is 12.6 to 63.1 nM. In addition, the “cIAP1 BIR3 vs BIR2 separation window” value on cIAP1-BIR3 was “+++ (10,000>FS>1,000)”.

For the compound `Cc1ccc(Cc2cnc3c(c2)N(C(=O)CN2C[C@@H](C)NC[C@@H]2CN2CCO[C@H](COc4cccc(OC[C@@H]5CN(C[C@H]6CN[C@H](C)CN6CC(=O)N6CC(C)(C)c7ncc(Cc8ccc(C)cc8)cc76)CCO5)c4)C2)CC3(C)C)cc1` [Compound 148], the IC50 on cIAP1-BIR2 fell in the range of 10000 to 51300 nM; on XIAP-BIR3 it was 31.6 to 501 nM; at cIAP2-BIR3, 15.8 to 31.6 nM; on cIAP1-BIR3, 15.8 to 31.6 nM. The EC50 in assay [1] was 12.6 to 63.1 nM. Also, the “cIAP1 BIR3 vs BIR2 separation window” value at cIAP1-BIR3 was “++++ (FS>10,000)”.

For `C[C@@H]1CN(CC(=O)N2CC(C)(C)c3ncc(Cc4ccc(C(F)(F)F)cc4)cc32)[C@@H](CN2CCO[C@H](COc3cccc(OC[C@@H]4CN(C[C@H]5CN[C@H](C)CN5CC(=O)N5CC(C)(C)c6ncc(Cc7ccc(C(F)(F)F)cc7)cc65)CCO4)c3)C2)CN1` [Compound 149], the IC50 on cIAP1-BIR2 lay within 10000 to 51300 nM; at XIAP-BIR3, 31.6 to 501 nM; on cIAP2-BIR3, 31.6 to 501 nM; at cIAP1-BIR3, 31.6 to 501 nM. Besides, in assay [1], the EC50 is 63.1 to 316 nM. Besides, the “cIAP1 BIR3 vs BIR2 separation window” value on cIAP1-BIR3 is on record as “+++ (10,000>FS>1,000)”.

As for `C[C@@H]1CN(CC(=O)N2CC(C)(C)c3ncc(Cc4ccc(Br)cc4)cc32)[C@@H](CN2CCO[C@H](COc3cccc(OC[C@@H]4CN(C[C@H]5CN[C@H](C)CN5CC(=O)N5CC(C)(C)c6ncc(Cc7ccc(Br)cc7)cc65)CCO4)c3)C2)CN1` [Compound 153], the IC50 at cIAP1-BIR2 lay in the range of 10000 to 51300 nM; on XIAP-BIR3, 31.6 to 501 nM; at cIAP2-BIR3, 31.6 to 501 nM; at cIAP1-BIR3 it was 31.6 to 501 nM. Further, the EC50 in assay [1] is 63.1 to 316 nM. The “cIAP1 BIR3 vs BIR2 separation window” value on cIAP1-BIR3 was “+++ (10,000>FS>1,000)”.

On to `C[C@@H]1CN(CC(=O)N2CC(C)(C)c3ncc(Cc4ccc(F)cc4)cc32)[C@@H](CN2CCN(S(=O)(=O)c3cccc(S(=O)(=O)N4CCN(C[C@H]5CN[C@H](C)CN5CC(=O)N5CC(C)(C)c6ncc(Cc7ccc(F)cc7)cc65)[C@H](C)C4)c3)C[C@H]2C)CN1` [Example 36, 2,2′-((3R,3′R,6R,6′R)-(((2R,2′R)-(1,3-phenylenedisulfonyl)bis(2-methylpiperazine-4,1-diyl))bis(methylene))bis(3-methylpiperazine-6,1-diyl))bis(1-(6-(4-fluorobenzyl)-3,3-dimethyl-2,3-dihydro-1H-pyrrolo[3,2-b]pyridin-1-yl)ethan-1-one)], for which the IC50 lay in the range of 3160 to 10000 nM on cIAP1-BIR2, 31.6 to 501 nM at XIAP-BIR3, 15.8 to 31.6 nM on cIAP2-BIR3 and 15.8 to 31.6 nM at cIAP1-BIR3. The EC50 in assay [1] was 0.49 to 12.6 nM. Moreover, the “cIAP1 BIR3 vs BIR2 separation window” value at cIAP1-BIR3 was “+++ (10,000>FS>1,000)”.

Consider `C[C@@H]1CN(CC(=O)N2CC(C)(C)c3[nH]c(=O)c(Cc4ccc(F)cc4)cc32)[C@@H](CN2CCC[C@@H](NC(=O)CCCCCCCCCCCCC(=O)N[C@@H]3CCCN(C[C@H]4CN[C@H](C)CN4CC(=O)N4CC(C)(C)c5[nH]c(=O)c(Cc6ccc(F)cc6)cc54)C3)C2)CN1` [Example 46, N1,N^14-bis((R)-1-(((2R,5R)-1-(2-(6-(4-fluorobenzyl)-3,3-dimethyl-5-oxo-2,3,4,5-tetrahydro-1H-pyrrolo[3,2-b]pyridin-1-yl)-2-oxoethyl)-5-methylpiperazin-2-yl)methyl)piperidin-3-yl)tetradecanediamide], for which the IC50 on cIAP1-BIR2 was in the range of 3160 to 10000 nM. For the same compound, the EC50 in assay [1] is 63.1 to 316 nM. The “XIAP BIR3 (pIC50)” value at XIAP-BIR3 (FRET competition binding) is recorded as “+ (7.50>pIC50>=6.30)”. The “cIAP2 BIR3 (pIC50)” value at cIAP2-BIR3 (FRET competition binding) is “++ (7.80>pIC50>=7.50)”. The “cIAP1 BIR3 (pIC50)” value on cIAP1-BIR3 (FRET competition binding) is recorded as “++ (7.80>pIC50>=7.50)”. The “cIAP1 BIR3 vs BIR2 separation window” value at cIAP1-BIR3 was “+++ (10,000>FS>1,000)”.

Regarding `C[C@@H]1CN(CC(=O)N2CC(C)(C)c3[nH]c(=O)c(Cc4ccc(F)cc4)cc32)[C@@H](CN2CCO[C@H](COc3ccc(S(=O)(=O)c4ccc(OC[C@@H]5CN(C[C@H]6CN[C@H](C)CN6CC(=O)N6CC(C)(C)c7[nH]c(=O)c(Cc8ccc(F)cc8)cc76)CCO5)cc4)cc3)C2)CN1` [Example 57, 1,1′-(2,2′-((3R,3′R,6R,6′R)-(((2S,2'S)-(((sulfonylbis(4,1-phenylene))bis(oxy))bis(methylene))bis(morpholine-2,4-diyl))bis(methylene))bis(3-methylpiperazine-6,1-diyl))bis(acetyl))bis(6-(4-fluorobenzyl)-3,3-dimethyl-1,2,3,4-tetrahydro-5H-pyrrolo[3,2-b]pyridin-5-one)], in assay [1], the EC50 is 12.6 to 63.1 nM. Further, the IC50 on XIAP-BIR3 lay in the range of 31.6 to 501 nM; on cIAP2-BIR3 it was 15.8 to 31.6 nM; at cIAP1-BIR3, 31.6 to 501 nM.

In the case of `C[C@@H]1CN(CC(=O)N2CC(C)(C)c3[nH]c(=O)c(Cc4ccc(F)cc4)cc32)[C@@H](CN2CCO[C@H](COc3ccc(CCc4ccc(OC[C@@H]5CN(C[C@H]6CN[C@H](C)CN6CC(=O)N6CC(C)(C)c7[nH]c(=O)c(Cc8ccc(F)cc8)cc76)CCO5)cc4)cc3)C2)CN1` [Example 58, 1,1′-(2,2′-((3R,3′R,6R,6′R)-(((2S,2'S)-(((ethane-1,2-diylbis(4,1-phenylene))bis(oxy))bis(methylene))bis(morpholine-2,4-diyl))bis(methylene))bis(3-methylpiperazine-6,1-diyl))bis(acetyl))bis(6-(4-fluorobenzyl)-3,3-dimethyl-1,2,3,4-tetrahydro-5H-pyrrolo[3,2-b]pyridin-5-one)], the EC50 in assay [1] was 12.6 to 63.1 nM. Further, the values for the half-inhibitory concentration (IC50) at XIAP-BIR3, on cIAP2-BIR3 and on cIAP1-BIR3 were 15.8 to 31.6 nM, 7.94 to 15.8 nM and 15.8 to 31.6 nM, respectively.

As for `C[C@@H]1CN(CC(=O)N2CC(C)(C)c3[nH]c(=O)c(Cc4ccc(F)cc4)cc32)[C@@H](CN2CCO[C@H](COc3ccc(C(C)(C)c4ccc(C(C)(C)c5ccc(OC[C@@H]6CN(C[C@H]7CN[C@H](C)CN7CC(=O)N7CC(C)(C)c8[nH]c(=O)c(Cc9ccc(F)cc9)cc87)CCO6)cc5)cc4)cc3)C2)CN1` [Example 62, 1,1′-(2,2′-((3R,3′R,6R,6′R)-(((2S,2'S)-((((1,4-phenylenebis(propane-2,2-diyl))bis(4,1-phenylene))bis(oxy))bis(methylene))bis(morpholine-2,4-diyl))bis(methylene))bis(3-methylpiperazine-6,1-diyl))bis(acetyl))bis(6-(4-fluorobenzyl)-3,3-dimethyl-1,2,3,4-tetrahydro-5H-pyrrolo[3,2-b]pyridin-5-one)], the EC50 in assay [1] is 12.6 to 63.1 nM. Also, the half-inhibitory concentration (IC50) at XIAP-BIR3, on cIAP2-BIR3 and on cIAP1-BIR3 was 31.6 to 501 nM each time.

Consider `C[C@@H]1CN(CC(=O)N2CC(C)(C)c3[nH]c(=O)c(Cc4ccc(F)cc4)cc32)[C@@H](CN2CCC(CCCC3CCN(C[C@H]4CN[C@H](C)CN4CC(=O)N4CC(C)(C)c5[nH]c(=O)c(Cc6ccc(F)cc6)cc54)CC3)CC2)CN1` [Example 94, 1,1′-(2,2′-((3R,3′R,6R,6′R)-((propane-1,3-diylbis(piperidine-4,1-diyl))bis(methylene))bis(3-methylpiperazine-6,1-diyl))bis(acetyl))bis(6-(4-fluorobenzyl)-3,3-dimethyl-1,2,3,4-tetrahydro-5H-pyrrolo[3,2-b]pyridin-5-one)], for which, in assay [1], the EC50 is 0.49 to 12.6 nM. The IC50 on XIAP-BIR3 was in the range of 15.8 to 31.6 nM; at cIAP2-BIR3 it was 7.94 to 15.8 nM; on cIAP1-BIR3, 7.94 to 15.8 nM.
